Results on one compound are retold here after US6348317B1, “Fluorescent and DNA cleavage properties of peptide/dye conjugates” (The Arizona Board of Regents, priority 1999, dated 2002).

Read-outs that look alike come from different tables or passages of the source.

One assay addresses dsDNA. Conditions: cited from earlier work.
In assay [1] the target is fluorescein labeled GRE2 sequence dsDNA (F-GRE2). Kind of assay: Total fluorescence quenching (energy transfer) of fluorescein labeled DNA. Format: binding. As for the experimental part: Fluorescence Measurements. Steady state fluorescence anisotropy measurements were carried out in 20 mM Tris (pH 7.9), 30 mM NaCl, 20 mM KCl, 1 mM MgCl2, and 5% glycerol. […] DNA samples used were either the non-labeled sequences shown in FIG. 2 or a fluorescein labeled duplex with a sequence matching GRE2 (FIG. 2).
For fluorescein labeled DNA measurements, the excitation wavelength was 491 nm and the emission was recorded at 521 nm with a 1.0 nm slit width. Titrations were performed holding the concentration of fluorescein-labeled DNA constant and increasing the concentration of TO, ZF or TO-ZF as indicated. To correct for the small amount of background fluorescence from TO in these measurements, control experiments were performed in parallel using DNA that was not fluorescein labeled, but was otherwise identical to the labeled DNA fragments. The thiazole orange fluorescence intensity measured in the control experiments was subtracted from the total fluorescence intensity for each data point. Under the excitation conditions of these measurements, the contribution to fluorescence by TO at 521 nm was less than 5% of the maximum fluorescence signal observed in the experiment. Even at the point in the titration where the maximum quenching of fluorescein fluorescence was observed (the point of lowest total fluorescence in the measurement), less than half of the fluorescence was due to TO, and this could accurately be removed by subtraction of the control value. Each point is an average of 60 measurements, and each titration was performed independently three times.
Total fluorescence data were collected in parallel to the anisotropy measurements and were calculated from raw data as the fluorescence intensity in the vertical plane plus two times the fluorescence intensity of the horizontal plane, (TF=Ivv+2Ivh). These values were used to determine the percent of the maximum fluorescence for each point along the titration and fit to equation 2. [formula] […]
Fluorescence changes upon binding of TO, ZF and TO-ZF to GRE containing duplex DNA. Equilibrium binding of the non-labeled zinc finger (ZF), unconjugated thiazole orange (TO) and thiazole orange-zinc finger conjugate (TO-ZF) to fluorescein labeled GRE2 sequence dsDNA was measured by both fluorescence anisotropy and total fluorescence. […] For fluorescein fluorescence, excitation was at 491 nm and emission was detected at 521 nm. […] Changes in the steady-state anisotropy of the fluorescein fluorescence from the labeled GRE sequence containing DNA (F-GRE2) can arise from two sources. […] By comparison, the amino acid zinc finger Xfin-31 was determined to have a dissociation constant of approximately 1 μM, M. S. Lee, et al., FEBS 279:289-294 (1991), whereas, the 66 amino acid zinc finger from GATA-1 has a dissociation constant of 10 nM. […]

Another assay has as its target poly(dG)-poly(dC) 20-mer. Kind of assay: Thiazole orange total fluorescence titration with non-target DNA. Conditions: 50 nM TO-ZF or TO; fit to equation 2; read-out: dissociation constant, non-specific binding.

Turning to `CN1C(=Cc2cc[n+](C)c3ccccc23)Sc2ccccc21` [TO, thiazole orange], the Kd at dsDNA (5-fold higher salt concentration, Nygren et al., Biopolymers 1998, read-out: dissociation constant for binding to dsDNA) was approximately 3000 nM; on dsDNA (Haugland 1996, Netzel et al. 1995, read-out: Kd (moderate affinity DNA binding)), approximately 10000 nM; in assay [1] (50 nM F-GRE2, interpretation cautioned (many binding sites), read-out: dissociation constant from quenching curve), 2400 nM; on poly(dG)-poly(dC) 20-mer, 2400 nM. Also, in assay [1] (excitation 491 nm, emission 521 nm), the “change in total fluorescein fluorescence over the titration” value is “large decreases in steady state fluorescence”.
